According to US8178578B2, “Chemical compounds” (The University of Manchester, priority 2006, dated 2012):

Experiments:
[1] = tested on: K562 human chronic myelogenous leukaemia cell line; assay: Test (a): growth inhibitory activity, MTT assay; type: cell-based; details: 120 h, K562 cells, 5 days incubation, read-out: IC50 - Assay (a), concentration to inhibit 50% cell proliferation
Procedure: The compounds of the present invention were tested in test (a) for growth inhibitory activity (IC50) against the K562 human chronic myelogenous leukaemia cell line using a MTT assay generally as described in Tada, H., Shiho, O., Kuroshima, K., Koyama, M., Tsukamoto, K., J. Immunol. Methods 1986, 93, 157 and Edmondson, J. M., Armstrong, L. S., Martinez, A. O., J. Tissue Culture Methods 1988, 11, 15. Cells were cultured in Roswell Park Memorial Institute (RPMI) medium, free of antibiotics and containing L-glutamine ([…]), supplemented with 10% foetal calf serum. A single suspension of the K562 cell line was tested from an exponentially growing culture. The cells were counted using a haemocytometer, and diluted to 5×10^3/ml.
A compound of the present invention was dissolved in dimethylsulfoxide (DMSO) at a concentration of 50 μM and 4 μl of the DMSO solution was added to the cell suspension (4 ml). 1 ml of this solution was added to a further 1 ml of cell solution in a neighbouring tube, giving a compound half that of the initial dilution. The dilutions were continued in the same manner affording seven samples at different concentrations. One cell solution was left compound free as a control. Treated cells (200 μl) were pipetted in triplicate into a 96-well plate and incubated at 37° C. in a 5% CO2 in air atmosphere for 5 days. After this time, the plate was removed from the incubator and a solution of (3-(4,5-dimethylthiazol-2-yl)-2,5-diphenyltetrazolium bromide (MTT) (50 μl, 3 mg/ml in phosphate buffered saline (PBS)) was added to each well. After a further 3 hour incubation period under the same conditions, the medium was carefully removed from each well by suction and the resulting formazan precipitate was dissolved in DMSO (200 μl). The optical density of each well was then read (540 nm) using a Titretek Multiscan MCC/340 platereader. After processing and analysis through the application of an ‘in-house’ software package, the results obtained enabled the calculation of the drug dose required to inhibit cellular growth by 50% (GI50 or IC50 value).

tubulin = assay: Test (b): inhibition of tubulin assembly; type: biochemical; details: absorbance at 350 nm over 20 minutes, 37° C.; read-out: IC50 - Assay (b), concentration for 50% inhibition of tubulin assembly
Procedure: The compounds of the present invention were also tested in assay (b) for their ability to inhibit tubulin assembly generally as described in McGown and Fox, “Structural and biochemical comparison of the anti-mitotic agents colchicine, combretastatin A-4 and amphethinile” Anti-Cancer Drug Design, 3, 249, 1989.
Samples were prepared in quartz cuvettes at 0° C. and contained 2-morpholinoethanesulfonic acid (MES) buffer (740 μl, 0.1 M MES, 1 mM ethylene glycol tetraacetic acid (EGTA), 0.5 mM MgCl2, pH 6.6), a compound of the present invention (10 μl, 1 mM in DMSO), tubulin (150 μl, 1/4 dilution of neat tubulin in MES buffer) and GTP (100 μl, 10 mM). The overall concentration of the compound in solution was therefore 10 μM. The cell was mixed well, dried and immediately placed in a Varian Cary 1 UV/Visible spectrophotometer, preheated to 37° C., along with a control sample containing MES buffer (740 μl), guanosine triphosphate (GTP) (100 μl, 10 mM), tubulin (150 μl, concentration as before) and DMSO (10 μl). The absorbance at 350 nm was recorded over a period of 20 minutes. The results were compared with the untreated control experiment to assess the relative degree of change in optical density. If assembly was less than 50% of that of the control, the experiment was repeated using decreasing concentrations (from 1 mM) of the compound in order to determine the activity.

[2] = tested on: DLD-1 tumours (colon carcinomas); assay: Test (c): in vivo functional vasculature study with Hoechst 33342; parameters: species or system mice; details: single intraperitoneal dose at believed maximum tolerated dose
Procedure: The compounds of the present invention were also tested in in vivo functional vasculature studies using the fluorescent DNA-binding compound Hoechst 33342 (H33342)
Twenty-eight mice were used for test (c). The tumours used were colon carcinomas (DLD-1). Once the tumours reached a suitable size, mice were randomised and assigned into 10 groups with one control group and 3 groups for each compound to be tested (referred to as a “drug group”). Mice in a drug group were treated intraperitoneally with a single dose of a compound of the present invention at a dose believed to be the maximum tolerated dose for each compound being tested (the maximum tolerated dose being measured by dosing mice with increasing amounts of compound (normally doubling the previous dose) until it is either fatal or the animal suffers substantial weight loss or has become distressed). The dose for the compound of Example 1 was 60 mg/kg, for the compound of Example 2 was 120 mg/kg and for the compound of Example 3 was 270 mg/kg. The control group was untreated. H33342 was then injected intravenously at 40 mg/kg to the treated mice 4, 8 and 24 hours after administration of a compound of the present invention and after 24 hours to the untreated control mice. After one minute, each mouse was killed by cervical dislocation and the tumours were removed. Following this procedure the H33342 is confined to the nuclei of cells adjacent to the blood vessels. The tumours were wrapped in aluminium foil and immediately snap-frozen in liquid nitrogen and then stored at −80° C. until required for sectioning. For assessment of tumour vasculature, 10 μm-thick sections were cut using a cryostat (Leica, CM 1100, Scientific Laboratory Supplies, UK) with intervals between sections of 200 μm. The sections were placed on glass slides and allowed to air dry before viewing under a light microscope using UV illumination. Functional vascular volume was quantified using a point scoring system as described previously (Cowen S. E., Bibby M. C., Double J. A., Characterisation of the vasculature within a murine adenocarcinoma growing in different sites to evaluate the potential of vascular therapies, Acta Oncologica, 1995, 34, 357-60). Using a graticule with 22×16 grids, points crossing areas of fluorescence were counted as positive points. The total number of positive points was used to calculate the percentage of functional vasculature. Five sections per tumour and 5 fields per section were examined for tumours.
The results of test (c) are shown in FIG. 1, which is a graph showing relative percentage of control functional vasculature in the DLD-1 tumours after treatment with the compounds of Examples 1, 2 and 3 at doses of 60, 120 and 270 mg/kg respectively. Each point plotted in the graph of FIG. 1 represents the mean percentage of control functional vasculature for each time-point.

[3] = Maximum tolerated dose by dose escalation in mice; details: mouse, in vivo, ip, single intraperitoneal dose, read-out: dose believed to be the maximum tolerated dose

| SMILES | IC50 [1] | IC50 (tubulin) | functional vasculature in DLD-1 tumours compared to control tumours ([2]; 8 hours post-treatment) | functional vasculature in DLD-1 tumours compared to control tumours ([2]; 24 hours post-treatment) | MTD [3] | functional vasculature in DLD-1 tumours compared to control tumours ([2]; 4 hours post-treatment) | melting point |
| --- | --- | --- | --- | --- | --- | --- | --- |
| COc1ccc2c(c1)COCc1cc(OC)c(OC)c(OC)c1-2 [Example 1, 1,2,3,9-Tetramethoxy-5,7-dihydrodibenzo[c,e]oxepine] | 110 nM | 5700 nM | significant decrease | significant decrease | 60 mg/kg |  |  |
| COc1cc2c(c(OC)c1OC)-c1cc3c(cc1COC2)OCO3 [Example 2, 5,7-Dihydro-1,2,3-trimethoxybenzo[d][1,3]dioxolo[4,5-h][2]benzoxepin] |  |  | no difference | significant functional vasculature decrease | 120 mg/kg | no difference |  |
| COc1ccc2c(c1O)COCc1cc(OC)c(OC)c(OC)c1-2 [Example 3, 3,9,10,11-Tetramethoxy-5,7-dihydrodibenzo[c,e]oxepin-4-ol] | 33.9 nM | 800 nM | restored back to above control level | significantly decreased | 270 mg/kg | dramatically decreased |  |
| COc1ccc2c(c1OP(=O)([O][Na+])[O][Na+])COCc1cc(OC)c(OC)c(OC)c1-2 [Example 4, 3,9,10,11-Tetramethoxy-5,7-dihydrodibenzo[c,e]oxepin-4-yl disodium phosphate] | 0.23 nM | 700 nM |  |  |  |  |  |
| COc1cc2c(c(OC)c1OC)-c1ccc([N+](=O)[O-])cc1COC2 [Example 5, 1,2,3-Trimethoxy-9-nitro-5,7-dihydrodibenzo[c,e]oxepine] |  |  |  |  |  |  | 161 °C |
| COc1cc2c(c(OC)c1OC)-c1ccc(N)cc1COC2 [Example 6, 9,10,11-Trimethoxy-5,7-dihydrodibenzo[c,e]oxepin-3-amine] |  |  |  |  |  |  | 145 °C |
| COc1ccc2c(c1OS(=O)(=O)C(F)(F)F)COCc1cc(OC)c(OC)c(OC)c1-2 [Example 7, 3,9,10,11-Tetramethoxy-5,7-dihydrodibenzo[c,e]oxepin-4-yl trifluoromethanesulfonate] |  |  |  |  |  |  | 164 °C |
| COc1ccc2c(c1N)COCc1cc(OC)c(OC)c(OC)c1-2 [Example 9, 3,9,10,11-Tetramethoxy-5,7-dihydrodibenzo[c,e]oxepin-4-amine] | 2 nM | 900 nM |  |  |  |  |  |
